Experimental data reported in patent US20260315492A1, “5,6-FUSED BICYCLIC AMIDES AND COMPOSITIONS FOR USE AS 15-PROSTAGLANDIN DEHYDROGENASE MODULATORS” (AMGEN INC., priority 2023, published 2026).

Biological target: T1, human recombinant 15-PGDH (Homo sapiens, UniProt P15428)
T1 sequence (P15428 1-266): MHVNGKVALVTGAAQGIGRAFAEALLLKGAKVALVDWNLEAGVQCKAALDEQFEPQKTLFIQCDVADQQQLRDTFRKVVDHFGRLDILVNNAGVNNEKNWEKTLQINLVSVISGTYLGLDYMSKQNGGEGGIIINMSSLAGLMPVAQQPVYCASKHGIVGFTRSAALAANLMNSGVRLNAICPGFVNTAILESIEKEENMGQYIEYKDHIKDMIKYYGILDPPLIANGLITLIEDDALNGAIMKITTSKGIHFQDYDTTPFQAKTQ
Assay: Inhibition of recombinant 15-PGDH enzymatic activity (NADH quantification after addition of PGE2 and NAD+)
Format: biochemical
Conditions: recombinant 15-PGDH; 15 min pre-incubation, 60-minute reaction, room temperature, pH 7.5; PGE2 and NAD+; read-out: PGDH-Lumi IC50
How it was run: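 Human recombinant 15-PGDH in 50 mM Tris pH 7.5, 0.01% Tween-20, 100 μM DTT, pre-incubated 15 min at room temperature with 22-point 2-fold compound dilutions. Reaction started with PGE2 and β-NAD+, run 60 min at room temperature, quenched. NADH signal read as activity; IC50 from concentration-response.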

First: Cn1cc2cc(-c3ccc4cc(C(=O)N5CCOCC56COC6)sc4n3)cnc2n1 [Compound B51, 2,8-dioxa-5-azaspiro[3.5]nonan-5-yl(6-(2-methyl-2H-pyrazolo[3,4-b]pyridin-5-yl)thieno[2,3-b]pyridin-2-yl)methanone]
Second: Cn1cc2cc(-c3ccc4cc(C(=O)N5CCOC6CC65)sc4n3)cnc2n1 (centres unmarked) [Compound B53, (6-(2-methyl-2H-pyrazolo[3,4-b]pyridin-5-yl)thieno[2,3-b]pyridin-2-yl)(2-oxa-5-azabicyclo[4.1.0]heptan-5-yl)methanone]
The IC50 of the first is 190-fold higher: 340 nM for the first, 1.81 nM for the second.

`C[C@H]1CC(F)(F)CCN1C(=O)c1cc2ccc(-c3cnc4nn(C)cc4c3)nc2s1` (single isomer, unassigned) [Compound B27S] and `CC1CC(F)(F)CCN1C(=O)c1cc2ccc(-c3cnc4nn(C)cc4c3)nc2s1` (single isomer, unassigned) [Compound B27R] are within 1.5-fold of each other in IC50: 1.24 nM for the first, 1.51 nM for the second.

First: Cn1cc2cc(-c3ccc4sc(C(=O)N5CCC(F)(F)CC5)c(N)c4n3)cnc2n1 [Compound C48, (3-amino-5-(2-methyl-2H-pyrazolo[3,4-b]pyridin-5-yl)thieno[3,2-b]pyridin-2-yl)(4,4-difluoro-1-piperidinyl)methanone]
Second: Cn1cc2cc(-c3ccc4sc(C(=O)N5CCC(F)(F)CC5)cc4n3)cnc2n1 [Compound C41, (4,4-difluoro-1-piperidinyl)(5-(2-methyl-2H-pyrazolo[3,4-b]pyridin-5-yl)thieno[3,2-b]pyridin-2-yl)methanone]
The IC50 of the first is 8.2-fold higher: 3.53 nM for the first, 0.429 nM for the second. The second is the more potent here.

Compared with `C[C@H]1COCCN1C(=O)c1cc2ccc(-c3cnc4c(c3)nnn4C)nc2s1` [Compound B44S, ((3S)-3-methyl-4-morpholinyl)(6-(3-methyl-3H-[1,2,3]triazolo[4,5-b]pyridin-6-yl)thieno[2,3-b]pyridin-2-yl)methanone], `C[C@@H]1COCCN1C(=O)c1cc2ccc(-c3cnc4c(=O)n(C)ccc4c3)nc2s1` [Compound B62R, 7-methyl-3-(2-(((3R)-3-methyl-4-morpholinyl)carbonyl)thieno[2,3-b]pyridin-6-yl)-1,7-naphthyridin-8(7H)-one] is 79-fold higher in IC50: 54.2 nM for the first, 4260 nM for the second.

Compared with `Cn1cc2cc(-c3cc(C4CC4)c4cc(C(=O)N5CCCOCC5)sc4n3)cnc2n1` [Compound B24, (4-cyclopropyl-6-(2-methyl-2H-pyrazolo[3,4-b]pyridin-5-yl)thieno[2,3-b]pyridin-2-yl)(1,4-oxazepan-4-yl)methanone], `Cn1cc2cc(-c3cc(C4CCC4)c4c(N)c(C(=O)N5CCCCC5)sc4n3)cnc2n1` [Compound B5, (3-amino-4-cyclobutyl-6-(2-methyl-2H-pyrazolo[3,4-b]pyridin-5-yl)thieno[2,3-b]pyridin-2-yl)(1-piperidinyl)methanone] is 1.7-fold lower in IC50: 0.428 nM for the first, 0.255 nM for the second. The second is the more potent here.

Compared with `Cn1cc2cc(-c3ccc4nc(C(=O)N5CCOCC5)sc4n3)cnc2n1` [Compound C51, (5-(2-methyl-2H-pyrazolo[3,4-b]pyridin-5-yl)[1,3]thiazolo[5,4-b]pyridin-2-yl)(4-morpholinyl)methanone], `Cc1c(C(=O)N2CCOCC2)sc2cc(-c3cnc4nn(C)cc4c3)ccc12` [Compound A2, (3-methyl-6-(2-methyl-2H-pyrazolo[3,4-b]pyridin-5-yl)-1-benzothiophen-2-yl)(4-morpholinyl)methanone] is 9.1-fold higher in IC50: 17.9 nM for the first, 163 nM for the second. The first is the more potent here.

Going from `Cn1cc(-c2ccc3cc(C(=O)N4CCOCC4)sc3n2)ccc1=O` [Compound B35, 1-methyl-5-(2-(4-morpholinylcarbonyl)thieno[2,3-b]pyridin-6-yl)-2(1H)-pyridinone] to `C[C@@H]1COCCN1C(=O)c1cc2ccc(-c3nccs3)nc2s1` [Compound B33R, ((3R)-3-methyl-4-morpholinyl)(6-(1,3-thiazol-2-yl)thieno[2,3-b]pyridin-2-yl)methanone], the IC50 rises from 576 nM to 4400 nM (7.6-fold).

Going from `C[C@H]1COCCN1C(=O)c1sc2nc(-c3cnc4nn(C)cc4c3)cc(C3CCC3)c2c1N` [Compound B6S, (3-amino-4-cyclobutyl-6-(2-methyl-2H-pyrazolo[3,4-b]pyridin-5-yl)thieno[2,3-b]pyridin-2-yl)((3S)-3-methyl-4-morpholinyl)methanone] to `Cn1cc2cc(-c3ccc4cc(C(=O)N5C[C@H]6CC[C@@H]5CO6)sc4n3)cnc2n1` (stereo in doubt) [Compound B52, (6-(2-methyl-2H-pyrazolo[3,4-b]pyridin-5-yl)thieno[2,3-b]pyridin-2-yl)(2-oxa-5-azabicyclo[2.2.2]octan-5-yl)methanone], the IC50 rises from 0.554 nM to 1.75 nM (3.2-fold). The first is the more potent here.

`Cn1cc2cc(-c3ccc4sc(C(=O)N5CCCC(F)(F)C5)cc4n3)cnc2n1` [Compound C43, (3,3-difluoro-1-piperidinyl)(5-(2-methyl-2H-pyrazolo[3,4-b]pyridin-5-yl)thieno[3,2-b]pyridin-2-yl)methanone] was tested, and the IC50 was 0.375 nM.
